In general, bioavailability refers to the share of a dose that reaches the circulation, judged against a reference dose that is usually intravenous. Broadly, the Tmax is the time from dosing to the highest level. In general, half-life refers to the time needed for the level to fall by half in the phase considered. Lower therefore signals rapid decline.

Like-named read-outs stand apart in the source and are kept apart here.

We go through 4 compounds from patent US12502480B1, “System and method for administration of a substance” (Abusarah, Inc., priority 2025, dated 2025).

The conditions of series [1]: cited from earlier work; for Cmax / Tmax: arterial.
The conditions of series [2]: cited from earlier work; for Cmax / AUC0-24 h: Caucasians 18-60 years of age; for Cmax: in ng/mL; for AUC0-24 h: in ng·h/mL.
A short description of series [3]: Pharmacokinetics of inhaled (nebulized) esketamine versus IV infusion, arterial concentrations. To be noted: comparison across Examples 3 and 4, not within the same individuals.
For series [4] the following is noted: cited from earlier work.
Another series can be described thus: clinical. The conditions noted are these: human, in vivo.
For series [5] the following is noted: cited from earlier work. This is another data set of the same source.
[6] abbreviates: inhalation of 0.35 mg/kg esketamine.
Setting [7] is: inhalation of 0.5 mg/kg esketamine.
[8] abbreviates: inhalation of 0.7 mg/kg esketamine.
Where [9] appears, read: IN administration, based upon the models.

Turning to `CN[C@]1(c2ccccc2Cl)CCCCC1=O` [esketamine, S-ketamine], the “fraction of dose directly absorbed through the alveoli” value in series [1] (INH administration) is reported as 70%. In series [1] (INH administration), the “fraction of dose travelling via a slower pathway (lung, GI or oropharyngeal absorption)” value is 30%. Further, the “rate constant of the slow transit” value in series [1] (INH administration) was 0.05 min⁻¹. For the same compound, the “half-life of the slow transit” value in series [1] (INH administration, from rate constant) was 13 min. For the same compound, the “dose-dependent reduction in bioavailability” value in series [1] (INH, at the higher doses) is on record as 20%. In series [1] (across INH doses, multicompartment model), the “modeled F value (extent of bioavailability)” value was 0.70. In addition, the bioavailability in series [1] (following INH administration) was 70%. Moreover, the “fraction metabolized to noresketamine” value in series [1] (in vivo) is given as 78%. In addition, the Cmax in series [1] (setting [6]) was 0.128 µg/mL; in series [1] (setting [7]), 0.18 µg/mL; in series [1] (setting [8]) it was 0.227 µg/mL; in series [2] (28 mg IN esketamine), 43.8; in series [2] (56 mg IN esketamine), 72.5; in series [2] (84 mg IN esketamine), 101. For the same compound, the Tmax in series [1] (setting [6]) is reported as 22 min; in series [1] (setting [7]), 15 min; in series [1] (setting [8]), 25 min. The results for the AUC0-24 h in series [2] (28 mg IN esketamine), in series [2] (56 mg IN esketamine) and in series [2] (84 mg IN esketamine) were 147.3, 254.7 and 362.2, respectively. In addition, in series [2] (setting [9]), the “fraction of dose absorbed through the nasal cavity” value is on record as roughly 54%. Also, in series [2] (setting [9]), the “fraction of dose swallowed” value is recorded as 46%. In addition, the “swallowed percentage reaching the systemic circulation after first-pass metabolism” value in series [2] (IN administration) is on record as 18.6%. Further, the mean absorption time in series [2] (absorption through the gut) was 2.02 h; in series [2] (absorption through the nasal mucosa), 0.333 h. Further, the absolute bioavailability in series [2] (intranasal) was roughly 50%. Also, the “absorption following INH versus IN” value in series [3] was “more rapid”.

Take `N[C@]1(c2ccccc2Cl)CCCCC1=O` [noresketamine]: the Cmax in series [1] (setting [6]) is 0.052 µg/mL; in series [1] (setting [7]), 0.097 µg/mL; in series [1] (setting [8]) it was 0.153 µg/mL; in series [2] (28 mg IN esketamine), 59.1; in series [2] (56 mg IN esketamine), 119.7; in series [2] (84 mg IN esketamine), 180. Besides, the Tmax in series [1] (setting [6]) is on record as 63 min; in series [1] (setting [7]), 48 min; in series [1] (setting [8]) it was 41 min. In addition, the AUC0-24 h in series [2] (28 mg IN esketamine) is on record as 274.4; in series [2] (56 mg IN esketamine) it was 516.3; in series [2] (84 mg IN esketamine), 758.

Regarding `C=CCN1CC[C@]23c4c5ccc(O)c4O[C@H]2C(=O)CC[C@@]3(O)[C@H]1C5` [naloxone], the bioavailability in series [4] (IM/SC dose) is reported as 98.3%; in series [4] (nasal spray), 40-55%. For the same compound, the Cmax in the series “clinical” (1 mg) came to 0.0021 µg/mL; in the series “clinical” (2 mg), 0.0043 µg/mL; in the series “clinical” (4 mg), 0.0101 µg/mL. The compound also came in with a half-life in “clinical” (iv, 0.4 mg) of 3.4 min. The “K (elimination rate constant), best-fit value” (0.4 mg IV, single elimination model) amounted to 12.16 h⁻¹. For the same compound, the “kabs (absorption rate constant)” value (IN doses of 1, 2 and 4 mg, best fit of one-phase association and dissociation model) stood at 4.47 h⁻¹. Also, the “elimination rate-constant, mean value” (IN doses of 1, 2 and 4 mg, model fit) stood at 0.82 h⁻¹.

On to `Cc1cccc([C@H](C)c2cnc[nH]2)c1C` [dexmedetomidine], for which the “disposition, intravenous versus intranasal administration” value in series [5] (2-compartment disposition model) was “similar”. Further, in series [5] (both atomization and drops), the intranasal bioavailability is roughly 40%. Also, the “uptake kinetics of atomized and intranasal relative to IV” value in series [5] (in vivo, iv) is “slower update kinetics”. For the same compound, the “absorption rate constant (kabs)” value in series [5] (intranasal by atomizer) was 0.857 h⁻¹; in series [5] (intranasal by drops), 0.725 h⁻¹. Further, the entries for the “mean transit time (delay in uptake)” value in series [5] (intranasal by atomizer) and in series [5] (intranasal by drops) were 0.176 h and 0.163 h, respectively.
